According to patent publication US12194124B2, “Personal care compositions for treating odor causing bacteria and methods for the same” (Colgate-Palmolive Company, priority 2019, dated 2025):

Tested on: C. Striatum
Assay: Growth inhibition assay in 96-well plate, optical density of C. Striatum
Format: cell-based, Corynebacterium striatum
Procedure: The efficacy of 2-butyl octanol for selectively promoting, inhibiting, reducing, and/or treating bacterial growth was evaluated. Particularly, the efficacy of 2-butyl octanol for selectively promoting, inhibiting, reducing, and/or treating bacterial growth of Corynebacterium and Staphylococcus was evaluated. To evaluate the efficacy, an active solution was prepared by emulsifying 2-butyl octanol with a nonionic surfactant, namely, Polysorbate 80. The active solution included the 2-butyl octanol and the Polysorbate 80 in a ratio of about 83:17. Both positive controls (including no active solution) and negative controls (including no bacteria) were also prepared.
A 96-well plate was utilized to evaluate the growth of the respective bacteria at varying dilutions. Each of the wells of a 96-well plate was aseptically filled with about 100 μL of Tryptic Soy Broth (TSB). In the first well of each row, about 100 μL of either the active solution (including the 2-butyl octanol and Polysorbate 80) or the desired solvent for the respective positive and negative controls was added to thereby provide a total of about 200 μL in the first well of the each respective row. A multi-channel pipette was then utilized to prepare a two-fold dilution in each column. Specifically, a multi-channel pipette set to about 100 μL was utilized to mix and transfer about 100 μL of the 200 μL from the wells of the first column to the respective wells of a subsequent column. This was repeated for each of the remaining eleven columns. About 100 μL of the twelfth column was removed, thereby leaving about 100 μL in each of the 96 wells. […] Specifically, a phosphate buffered saline (PBS) was utilized for the negative control. About 100 μL of the respective bacteria adjusted to 0.1 optical density (OD) bacteria was added to all other wells. The well plate was then incubated overnight at about 37° C. in a growth inhibition assay machine. Measurements were taken at about one hour increments.

## CCCCCCC(CO)CCCC (stereo not shown) [2-butyl octanol, 2-butyl-1-octanol]
0.02% 2-Butyl Octanol, 1 Hour
  Measured Optical Density of C. Striatum: 0
0.02% 2-Butyl Octanol, 2 Hour
  Measured Optical Density of C. Striatum: 0.086
0.02% 2-Butyl Octanol, 3 Hour
  Measured Optical Density of C. Striatum: 0.13
0.02% 2-Butyl Octanol, 4 Hour
  Measured Optical Density of C. Striatum: 0.139
0.02% 2-Butyl Octanol, 5 Hour
  Measured Optical Density of C. Striatum: 0.143
0.02% 2-Butyl Octanol, 6 Hour
  Measured Optical Density of C. Striatum: 0.144
0.02% 2-Butyl Octanol, 7 Hour
  Measured Optical Density of C. Striatum: 0.144
0.02% 2-Butyl Octanol, 8 Hour
  Measured Optical Density of C. Striatum: 0.144
0.02% 2-Butyl Octanol, 9 Hour
  Measured Optical Density of C. Striatum: 0.146
0.02% 2-Butyl Octanol, 10 Hour
  Measured Optical Density of C. Striatum: 0.149
0.02% 2-Butyl Octanol, 11 Hour
  Measured Optical Density of C. Striatum: 0.155
0.02% 2-Butyl Octanol, 12 Hour
  Measured Optical Density of C. Striatum: 0.163
0.02% 2-Butyl Octanol, 13 Hour
  Measured Optical Density of C. Striatum: 0.178
0.02% 2-Butyl Octanol, 14 Hour
  Measured Optical Density of C. Striatum: 0.21
0.02% 2-Butyl Octanol, 15 Hour
  Measured Optical Density of C. Striatum: 0.254
0.02% 2-Butyl Octanol, 16 Hour
  Measured Optical Density of C. Striatum: 0.322
0.02% 2-Butyl Octanol, 17 Hour
  Measured Optical Density of C. Striatum: 0.404
0.02% 2-Butyl Octanol, 18 Hour
  Measured Optical Density of C. Striatum: 0.52
0.04% 2-Butyl Octanol, 1 Hour
  Measured Optical Density of C. Striatum: 0.006
0.04% 2-Butyl Octanol, 2 Hour
  Measured Optical Density of C. Striatum: 0.058
0.04% 2-Butyl Octanol, 3 Hour
  Measured Optical Density of C. Striatum: 0.088
0.04% 2-Butyl Octanol, 4 Hour
  Measured Optical Density of C. Striatum: 0.1
0.04% 2-Butyl Octanol, 5 Hour
  Measured Optical Density of C. Striatum: 0.111
0.04% 2-Butyl Octanol, 6 Hour
  Measured Optical Density of C. Striatum: 0.117
0.04% 2-Butyl Octanol, 7 Hour
  Measured Optical Density of C. Striatum: 0.121
0.04% 2-Butyl Octanol, 8 Hour
  Measured Optical Density of C. Striatum: 0.124
0.04% 2-Butyl Octanol, 9 Hour
  Measured Optical Density of C. Striatum: 0.127
0.04% 2-Butyl Octanol, 10 Hour
  Measured Optical Density of C. Striatum: 0.13
0.04% 2-Butyl Octanol, 11 Hour
  Measured Optical Density of C. Striatum: 0.133
0.04% 2-Butyl Octanol, 12 Hour
  Measured Optical Density of C. Striatum: 0.136
0.04% 2-Butyl Octanol, 13 Hour
  Measured Optical Density of C. Striatum: 0.141
0.04% 2-Butyl Octanol, 14 Hour
  Measured Optical Density of C. Striatum: 0.149
0.04% 2-Butyl Octanol, 15 Hour
  Measured Optical Density of C. Striatum: 0.166
0.04% 2-Butyl Octanol, 16 Hour
  Measured Optical Density of C. Striatum: 0.192
0.04% 2-Butyl Octanol, 17 Hour
  Measured Optical Density of C. Striatum: 0.234
0.04% 2-Butyl Octanol, 18 Hour
  Measured Optical Density of C. Striatum: 0.298
0.08% 2-Butyl Octanol, 1 Hour
  Measured Optical Density of C. Striatum: 0.014
0.08% 2-Butyl Octanol, 2 Hour
  Measured Optical Density of C. Striatum: 0.07
0.08% 2-Butyl Octanol, 3 Hour
  Measured Optical Density of C. Striatum: 0.108
0.08% 2-Butyl Octanol, 4 Hour
  Measured Optical Density of C. Striatum: 0.118
0.08% 2-Butyl Octanol, 5 Hour
  Measured Optical Density of C. Striatum: 0.124
0.08% 2-Butyl Octanol, 6 Hour
  Measured Optical Density of C. Striatum: 0.127
0.08% 2-Butyl Octanol, 7 Hour
  Measured Optical Density of C. Striatum: 0.129
0.08% 2-Butyl Octanol, 8 Hour
  Measured Optical Density of C. Striatum: 0.131
0.08% 2-Butyl Octanol, 9 Hour
  Measured Optical Density of C. Striatum: 0.132
0.08% 2-Butyl Octanol, 10 Hour
  Measured Optical Density of C. Striatum: 0.133
0.08% 2-Butyl Octanol, 11 Hour
  Measured Optical Density of C. Striatum: 0.133
0.08% 2-Butyl Octanol, 12 Hour
  Measured Optical Density of C. Striatum: 0.134
0.08% 2-Butyl Octanol, 13 Hour
  Measured Optical Density of C. Striatum: 0.137
0.08% 2-Butyl Octanol, 14 Hour
  Measured Optical Density of C. Striatum: 0.141
0.08% 2-Butyl Octanol, 15 Hour
  Measured Optical Density of C. Striatum: 0.151
0.08% 2-Butyl Octanol, 16 Hour
  Measured Optical Density of C. Striatum: 0.168
0.08% 2-Butyl Octanol, 17 Hour
  Measured Optical Density of C. Striatum: 0.194
0.08% 2-Butyl Octanol, 18 Hour
  Measured Optical Density of C. Striatum: 0.23
0.16% 2-Butyl Octanol, 1 Hour
  Measured Optical Density of C. Striatum: 0.038
0.16% 2-Butyl Octanol, 2 Hour
  Measured Optical Density of C. Striatum: 0.037
0.16% 2-Butyl Octanol, 3 Hour
  Measured Optical Density of C. Striatum: 0.036
0.16% 2-Butyl Octanol, 4 Hour
  Measured Optical Density of C. Striatum: 0.036
0.16% 2-Butyl Octanol, 5 Hour
  Measured Optical Density of C. Striatum: 0.036
0.16% 2-Butyl Octanol, 6 Hour
  Measured Optical Density of C. Striatum: 0.036
0.16% 2-Butyl Octanol, 7 Hour
  Measured Optical Density of C. Striatum: 0.035
0.16% 2-Butyl Octanol, 8 Hour
  Measured Optical Density of C. Striatum: 0.036
0.16% 2-Butyl Octanol, 9 Hour
  Measured Optical Density of C. Striatum: 0.036
0.16% 2-Butyl Octanol, 10 Hour
  Measured Optical Density of C. Striatum: 0.037
0.16% 2-Butyl Octanol, 11 Hour
  Measured Optical Density of C. Striatum: 0.037
0.16% 2-Butyl Octanol, 12 Hour
  Measured Optical Density of C. Striatum: 0.037
0.16% 2-Butyl Octanol, 13 Hour
  Measured Optical Density of C. Striatum: 0.038
0.16% 2-Butyl Octanol, 14 Hour
  Measured Optical Density of C. Striatum: 0.038
0.16% 2-Butyl Octanol, 15 Hour
  Measured Optical Density of C. Striatum: 0.039
0.16% 2-Butyl Octanol, 16 Hour
  Measured Optical Density of C. Striatum: 0.04
0.16% 2-Butyl Octanol, 17 Hour
  Measured Optical Density of C. Striatum: 0.041
0.16% 2-Butyl Octanol, 18 Hour
  Measured Optical Density of C. Striatum: 0.041
2-butyl octanol at least about 1.6% or greater (Table 3)
  growth of C. stratium: completely inhibited
